Measurements: a melting point compilation (Tetko et al.; mined from patent text by program, amines drawn as free bases though some values may be those of a salt)

Row | SMILES | melting point
1 | NC(=O)OCC(O)Cn1oc2ccc(Cl)cc2c1=O (stereo unspecified) | 161 to 162 °C
2 | Cc1nnc2n1-c1ccc(Cl)cc1C(c1ccccc1F)=CC2 | 223 to 225 °C
3 | O=S(=O)(CCO)c1cc2c(Nc3cccc(Br)c3)ncnc2cn1 | 208 to 209 °C
4 | CCOC(=O)c1c(C(F)(F)F)nn(C)c1N | 120 to 121 °C
5 | O=C(SCC1C(=O)OCC1c1ccc(Cl)cc1)c1ccccc1 (stereo unspecified) | 99 to 101 °C
6 | COCC(=O)N(CC(C)=O)c1c(C)cccc1C | 56 to 57 °C
7 | CCSCCn1c(=N)sc2cc(OC(F)(F)C(F)(F)F)ccc21 | < 50 °C
8 | CC(=O)c1c[nH]c(Cc2ccc(O)cc2)n1 | 229 to 231 °C
9 | Cc1cc(O)c(SC(C)(C)C)c(=O)o1 | 108 to 112 °C
10 | O=c1[nH]c2c3ccccc3ccc2n(C2CC2)c1=O | 307 °C
11 | C#Cc1cc2c(Nc3ccc4[nH]ccc4c3)ncnc2cc1OC | 176 °C
12 | Cc1cc(C)cc(-c2[nH]c3ccc(C(C)(C)C(=O)O)cc3c2CCN(CCCCc2ccc(NS(C)(=O)=O)cc2)C(=O)OCc2ccccc2)c1 | > 102 °C
13 | O=C(O)c1cc(C(F)(F)F)ccc1I | 171 to 172 °C
14 | Cc1ccc(-n2c(-c3ccccc3)ccc2-c2ccccc2)cc1 | 207 to 208 °C
15 | CC(C)[C@H](NC(=O)OCc1csc(N2CCOCC2)n1)C(=O)N[C@@H](Cc1ccccc1)C[C@H](O)[C@H](Cc1ccccc1)NC(=O)OCc1cncs1 | 169 to 170 °C
16 | CC(C#CC1CC(Oc2ccc(F)cc2)C1)N(O)C(N)=O (stereo unspecified) | 125 to 127 °C
17 | NS(=O)(=O)c1ccc2c(c1)C(=NO)CCC2 | 162 to 164 °C
18 | CCC1(C)OC(c2ccc(S(N)(=O)=O)cc2)=C(c2ccco2)C1=O (stereo unspecified) | 154 to 155 °C
19 | O=C=Nc1cc(OC(=O)Oc2cc(N=C=O)c(F)cc2Cl)c(Cl)cc1F | 108 to 109 °C
20 | O=C(NCc1cccnc1)c1ccc2n1Cc1ccccc1N(C(=O)c1ccc(-c3ncccn3)cc1)C2 | 234 to 236 °C
21 | CCCC1CCC(C2CCc3c(c(F)c(F)c4cc(OCC)ccc34)O2)CC1 (stereo unspecified) | 158 °C
22 | CC(=O)NCCCNc1ccc(NCCN(C)C)c2c1C(=O)c1ccccc1C2=O | 193 to 194 °C
23 | CCCCCCCCCCN1C(=O)OC2(CCNCC2)C1(C)O (stereo unspecified) | 139 to 140 °C
24 | CCOc1cc(Cc2ccccn2)ccc1CCCOc1c(CC(=O)O)cccc1OC | 97.5 to 98.5 °C

Row | SMILES | melting point
25 | Clc1ccc(Nc2nc(-c3cccc(Cl)n3)nc3ccccc23)cc1 | 212 to 213 °C
26 | N#Cc1cc(Cl)ccc1Oc1cccc(O)c1 | 118 to 120 °C
27 | COC(=O)c1cnoc1-c1ccc(F)cc1 | 92 to 93 °C
28 | CSc1nc2ccnn2c(OCc2ccccc2)c1C#N | 194 °C
29 | CCOC(=O)C1=C(N)NC(C)=C(C(C)=O)C1c1cccc([N+](=O)[O-])c1 (stereo unspecified) | 217 °C
30 | COC(=O)CCCCCCCCCCCCCCCCCCCCCc1c(C)cc(OC)c(OC)c1O | 71 to 72.5 °C
31 | CC(CC(C)(C)C)CP(=O)(O)C1OC(=O)c2ccccc21 (stereo unspecified) | 117 to 121 °C
32 | CCOCCC(=O)C=P(c1ccccc1)(c1ccccc1)c1ccccc1 | 63 to 65 °C
33 | CCCCOc1c(CNC(=O)OC(C)(C)C)n(CC2CC2)c(=O)c2ccc(O)cc12 | 164 to 166 °C
34 | COc1ccc2c(c1)CCN1C(=O)[C@H]3CCCN(S(C)(=O)=O)[C@H]3C[C@@H]21 | 138 to 140 °C
35 | CN1CCN(Cc2ccccc2F)C(C2=NCCN2)C1 (stereo unspecified) | 160 to 162 °C
36 | CSc1ccc(C(=O)Nc2ccccc2)cc1[N+](=O)[O-] | 219 to 222 °C
37 | NS(=O)(=O)c1ccc(-c2cc(F)c(F)cc2-c2ccc3c(c2)OCCO3)cc1 | 107 to 108 °C
38 | COCCOC(=O)C(=O)Nc1nc(-c2ccccc2)cs1 | 118 to 120 °C
39 | O=C(C=NO)c1cccc(Cl)c1Cl | 109 °C
40 | CCNC(=O)n1cc(F)c(NC(=O)NCc2ccccc2OC)nc1=O | 248 to 250 °C
41 | c1ccc(-c2nc3ccc(NCCCN4CCC(OC(c5ccccc5)c5ccccc5)CC4)nn3n2)cc1 | 170 to 172 °C
42 | CN(C)C1(c2ccccn2)CCC(NCCc2c[nH]c3ccccc23)CC1 (stereo unspecified) | 150 to 152 °C
43 | CCC1(CCCN2CCN(c3cccc(Cl)c3)CC2)C(=O)Nc2ccccc21 (stereo unspecified) | 119 to 120 °C
44 | OCCOc1ccc(-c2nc(-c3ccc(Cl)cc3)nc(-c3ccc(OCCO)cc3O)n2)c(O)c1 | 149 to 150 °C
45 | CCOCc1nc(C(C)(C)O)c(C(=O)OCOC(=O)C(C)(C)C)n1Cc1ccc(-c2ccccc2C(=O)O)cc1 | 65 °C
46 | Cc1csc2nc3ccccc3c(=O)n12 | 180 °C
47 | O=C(Nc1ncc(C(F)(F)F)o1)C1c2cc(F)ccc2Oc2ccc(F)cc21 | 232 °C
48 | CCC(C)C(CO)NC(=O)CC(O)C(CC(C)C)NC(=O)C(Cc1cccs1)NC(=O)C(Cc1cccc2ccccc12)NC(=O)OCc1ccccc1 (mixture of isomers) | 160 to 162 °C

Row | SMILES | melting point
49 | COC(=O)c1c(C)[nH]c(=S)n1Nc1cccc(Cl)c1 | 194 to 196 °C
50 | COc1ccc(C(=O)c2cccc([N+](=O)[O-])c2)cc1OC | 133 to 135 °C
51 | Cn1nc(Sc2ccc(C(=O)O)c(Cl)c2)n(C)c1=O | 222 °C
52 | COc1ccccc1N1CCN(CCCCOc2ccc(-c3cn4cccnc4n3)cc2)CC1 | 151 to 153 °C
53 | CCCOCCOC(=O)C(=O)Nc1nc(-c2ccccc2)cs1 | 94 to 96 °C
54 | CC1(C)CC(=Cc2nc3cc(O)ccc3o2)CC(C)(C)C1 | 160 to 162 °C
55 | Nc1nc2c(ncn2COCCCOC(=O)c2ccccc2)c(=O)[nH]1 | 198 to 201 °C
56 | COC(=O)CC(=O)N1CCC(c2ccc(OC)c(OC3CCCC3)c2)CC1 | 78 to 79 °C
57 | CCC(=O)N1C2CCC1CN(Cc1cc3ccccc3o1)C2 | 88 to 90 °C
58 | Cn1cc(C2=C(c3cn(C)c4ccc(O)cc34)C(=O)NC2=O)c2ccccc21 | 284 to 287 °C
59 | Nc1ccc(C(=O)NNCCC(=O)OCc2ccccc2)cc1 | 96 to 97 °C
60 | COC(=O)c1csc(C(=O)CBr)c1OC(=O)c1ccccc1 | 115 to 118 °C
61 | O=C(CC(=O)c1ccccc1)Nc1cc(Cl)c(Cl)cc1[N+](=O)[O-] | 177 to 179 °C
62 | OC(Cn1ccnc1)(c1ccc(-c2ccccc2)cc1)c1ccccc1Cl (stereo unspecified) | 222 °C
63 | Cc1ncccc1-c1cncc(OC2SCC(O)C(O)C2O)c1 (stereo unspecified) | 204 to 207 °C
64 | COc1ccc(C(=O)c2ccc(OCc3nc(-c4ccccc4)oc3C)cc2)c(OC(C)(C)C(=O)O)c1 | 175 to 177 °C
65 | N#CCCCCNc1ccc(O)cc1 | 88 to 90 °C
66 | CCN(c1ccc(C)c2cc(-c3ncc(CN4CCN(C(C)=O)CC4)s3)[nH]c12)S(=O)(=O)c1cccs1 | 157 to 158 °C
67 | c1ccc2c3c([nH]c2c1)CCS3 | 152 to 155 °C
68 | CCNc1nc(N)nc2c1ncn2C1C=CC(CO)C1 (stereo unspecified) | 171 to 173 °C
69 | CN1CCN(C(=O)C(C)(C)OCc2nn(Cc3ccccc3)c3ccccc23)CC1 | 97 to 98 °C
70 | COCOc1ccc(C(C(c2ccccc2)c2ccc(F)cc2)C(F)(F)F)cc1 (stereo unspecified) | 85 to 88 °C
71 | O=Cc1c[nH]c2ccc3c(c12)CC(O)CO3 (stereo unspecified) | 158 to 162 °C
